Experimental data published in patent US12239652B2, “Composition for preventing or treating muscular diseases, or for improving muscular functions, containing ganglioside” (INDUSTRY-ACADEMIC COOPERATION FOUNDATION, YONSEI UNIVERSITY, priority 2018, dated 2025).

Experiments:
MuRF1 = assay: RT-PCR of muscle degrading protein mRNA in TNF-α-treated L6 myotubes: MuRF1; type: cell-based; conditions: 50 ng/mL TNF-α, 15 μM or 25 μM
Description: (§1) L6 myoblasts (ATCC) were seeded with DMEM (Hyclone) supplemented with 10% FBS (Hyclone) in a 6-well plate at a density of 1×10^5 cells/well, followed by culture. When the cultured cells reached a confluency of ˜80-85% per well, the media in the wells were replaced with DMEM (Hyclone) supplemented with 2% HS (Hyclone), followed by culture for additional 6 days to induce differentiation into myotubes. During culture for 6 days, the culture media were changed once every other day a total of 3 times. The differentiation-induced cells were harvested and the cell media were replaced with DMEM supplemented with 50 ng/mL TNF-α (PeproTech) in which ganglioside GM3 (Cayman) was dissolved at a concentration of 1 μM or 5 μM. A group treated with 0.01% DMSO instead of the sample was used as a control. Total RNA was isolated from cells using TRIzol reagent (Takara, Kyoto, Japan). The isolated total RNA was quantified using NanoDrop 1000 (Thermo Fisher Scientific Inc., Waltham, MA, USA). 16 μL of the RNA was synthesized into cDNA using Reverse Transcriptase Premix (ELPIS-Biotech) and a PCR system (Gene Amp PCR System 2700; Applied Biosystems, Foster City, CA, USA) at 42° C. for 55 min and 70° C. for 15 min. 3 μL of the synthesized cDNA, the specific primers shown in Table 1 (Bioneer, Daej eon, Korea), and PCR premix (ELPIS-Biotech) were mixed and PCR was repeated 30 times at 95° C. for 30 sec, 60° C. for 1 min, and 72° C. for 1 min. After PCR amplification, cDNA was separated by electrophoresis on a 1.5% agarose gel and the cDNA bands were visualized using a G;BOX EF imaging system (Syngene).
(§2) The procedure of Example 8 was repeated except that cells were treated with ganglioside GM1 (Cayman) at a concentration of 15 μM or 25 μM to investigate the mRNA transcription and expression levels of atrogin-1 and MuRF1 as muscle degrading proteins.
(§3) The procedure of Example 8 was repeated except that cells were treated with ganglioside GD1a (Cayman) at a concentration of 1 μM or 3 μM to investigate the mRNA transcription and expression levels of atrogin-1 and MuRF1 as muscle protein degradation-related enzymes.
(§4) The procedure of Example 8 was repeated except that cells were treated with each of gangliosides GT1b and GQ1b (Cayman) at a concentration of 1 μM to investigate the mRNA transcription and expression levels of atrogin-1 and MuRF1 as muscle protein degradation-related enzymes.

Wistar rats = assay: Muscle mass (soleus weight) in TNF-α-induced muscular atrophy animal model; type: in vivo; conditions: 50 mg/kg body weight once a day for 8 weeks
Description: Wistar rats, aged five weeks, were acclimatized for one week and supplied with 100 ng/g of TNF-α for 2 weeks to induce muscular atrophy. The animals were randomly divided into a total of 5 groups, 8 animals per group, depending on their weight. Each of gangliosides GM3, GM1, GD1a, GT1b, and GQ1b (each 50 mg/kg body weight) as experimental groups was suspended in 0.25% carboxymethylcellulose. The suspension was administered at a given time once a day for 8 weeks. A group administered the same amounts of 0.25% carboxymethyl cellulose and TNF-α ingested by each experimental group was used as a control.
After administration of the sample for 8 weeks, the right soleus was dissected and its weight was measured with a microbalance (Mettler PE160, USA).

mTOR = mTOR Sandwich ELISA in L6 myotubes (activity for myogenic induction); type: cell-based; conditions: 15 μM or 25 μM, 12-h culture, *P<0.05
Description: The mTOR protein is known to induce the activation of proteins involved in muscle protein synthesis and an increase in muscle mass in the PI3K/Akt signaling pathway in muscle cells when phosphorylated and activated. Thus, the activity of mTOR was confirmed using an mTOR Sandwich ELISA kit (Cell Signaling Technology, Beverly, MA, USA) to determine the activity of ganglioside GM3 for myogenic induction.
L6 myoblasts (ATCC; Manassas, VA, USA) were seeded with Dulbecco's modified Eagle's media (DMEM; Hyclone) supplemented with 10% fetal bovine serum (FBS; Hyclone, Logan, UT, USA) in a 6-well plate at a density of 1×10^5 cells/well, followed by culture for 24 h. The media in the wells were replaced with DMEM (Hyclone) supplemented with 2% horse serum (HS; Hyclone), followed by culture for additional 6 days to differentiate the L6 cells into myotubes. Then, cells were treated with ganglioside GM3 (Cayman, Ann Arbor, MI, USA) at a concentration of 1 μM or 5 μM. After 12-h culture, cells were lysed by treatment with a cell lysis buffer. Proteins in the cell lysate were quantified by the Bradford method (Bio-Rad Laboratories Inc., Hercules, CA, USA) and the concentration of the cell lysate was then adjusted to 1 mg/mL. The cell lysate was plated in microwells bound with anti-mTOR antibody (50 μL/well) and cultured at 37° C. for 2 h. Cells were washed a total of 4 times with a washing buffer, treated with a detection antibody, and cultured at 37° C. for 1 h, rewashed a total of 4 times with a washing buffer, added with a horseradish peroxidase (HRP)-conjugated secondary antibody, and cultured at 37° C. for 30 min. Finally, after washing a total of 4 times with a washing buffer, TMB substrate was added to each well. After culture at 37° C. for 10 min, a stop solution was added to stop the TMB reaction. 2 min later, absorbance was measured at a wavelength of 450 nm to determine the level of mTOR in the myotubes treated with ganglioside GM3.
The procedure of Example 1 was repeated except that cells were treated with ganglioside GM1 (Cayman) at a concentration of 15 μM or 25 μM to examine the activity of the ganglioside for myogenic induction.
The procedure of Example 1 was repeated except that cells were treated with ganglioside GD1a (Cayman) at a concentration of 1 μM or 3 μM to examine the activity of the ganglioside for myogenic induction.
The procedure of Example 1 was repeated except that cells were treated with each of gangliosides GT1b and GQ1b (Cayman) at a concentration of 1 μM to examine the activity of the ganglioside for myogenic induction.

p-mTOR = assay: Western blot of mRNA translation biomarkers in TNF-α-treated L6 myotubes: p-mTOR; type: cell-based; conditions: 50 ng/mL TNF-α, 15 μM or 25 μM
Description: (§5) L6 myoblasts (ATCC) were seeded with DMEM (Hyclone) supplemented with 10% FBS (Hyclone) in a 6-well plate at a density of 1×10^5 cells/well, followed by culture. When the cultured cells reached a confluency of ˜80-85% per well, the media in the wells were replaced with DMEM (Hyclone) supplemented with 2% HS (Hyclone), followed by culture for additional 6 days to induce differentiation into myotubes. During culture for 6 days, the culture media were changed once every other day a total of 3 times. […] A group treated with 0.01% DMSO instead of the sample was used as a control. Cells were lysed with NP-40 buffer (ELPIS-Biotech, Daej eon, Korea) with a protease inhibitor cocktail (Sigma-Aldrich, St. Louis, MO, USA) and centrifuged at 13,000 rpm for 10 min. The cell lysate was obtained from the supernatant. The concentration of proteins in the supernatant was determined by the Bradford method (Bio-Rad Laboratories Inc.). Proteins at a certain concentration were heated for 5 min and separated by SDS-PAGE electrophoresis. The separated proteins were transferred to nitrocellulose membranes. Then, p-mTOR, mTOR, p-p70S6K, p70S6K, p-4EBP1, 4EBP1, and alpha-tubulin primary antibodies (Cell signaling technology, Beverly, MA, USA) were diluted at a ratio of 1:1000 with 2.5% bovine serum albumin (BSA; Bioworld, Dubin, OH, USA) and incubated with the proteins transferred to the nitrocellulose membranes at room temperature for 20 h. After incubation of the primary antibodies, the nitrocellulose membranes were washed 3 times with Tris-buffer saline Tween 20 (TBST) for 10 min. After washing, an anti-rabbit secondary antibody (Bethyl Laboratories, Inc., Montgomery, TA, USA) conjugated with horseradish peroxidase recognizing the primary antibodies was diluted 1:5000 with 2.5% BSA (Bioworld) and incubated with the nitrocellulose membranes at room temperature for 2 h. […]
(§6) Protein bands detected through antibody binding were developed using an ECL western blot detection reagent (Amersham, Tokyo, Japan) and visualized using a G;BOX EF imaging system (Syngene, Cambridge, UK). […]

atrogin-1 = assay: RT-PCR of muscle degrading protein mRNA in TNF-α-treated L6 myotubes: atrogin-1; type: cell-based; conditions: 50 ng/mL TNF-α, 15 μM or 25 μM
Description: as §1, §2, §3, §4

p-p70S6K = assay: Western blot of mRNA translation biomarkers in TNF-α-treated L6 myotubes: p-p70S6K; type: cell-based; conditions: 50 ng/mL TNF-α, 15 μM or 25 μM
Description: as §5, §6

p-4EBP1 = assay: Western blot of mRNA translation biomarkers in TNF-α-treated L6 myotubes: p-4EBP1; type: cell-based; conditions: 50 ng/mL TNF-α, 15 μM or 25 μM
Description: as §5, §6

CCCCCCCCCCCCC/C=C/[C@@H](O)[C@H](CO[C@@H]1O[C@H](CO)[C@@H](O[C@@H]2O[C@H](CO)[C@H](O[C@@H]3O[C@H](CO)[C@H](O)[C@H](O[C@@H]4O[C@H](CO)[C@H](O)[C@H](O)[C@H]4O)[C@H]3NC(C)=O)[C@H](O[C@]3(C(=O)O)C[C@H](O)[C@@H](NC(C)=O)[C@H]([C@H](O)[C@H](O)CO)O3)[C@H]2O)[C@H](O)[C@H]1O)NC(=O)CCCCCCCCCCCCCCCCC [Ganglioside GM1, ganglioside GM1]
mRNA expression level of MuRF1 in L6 muscle cells (MuRF1): reduced | increase of muscle (soleus) weight compared to the control group (Wistar rats): 22.11% | Average soleus weight (Wistar rats; right soleus, control 416.0 ± 19.57): 508.0 ± 19.8 mg | activity of mTOR in L6 muscle cells (mTOR): significantly increased | expression level of phosphorylated p-mTOR in L6 muscle cells (p-mTOR): increased | mRNA expression level of atrogin-1 in L6 muscle cells (atrogin-1): reduced | expression level of phosphorylated p-P70S6K in L6 muscle cells (p-p70S6K): increased | expression level of phosphorylated p-4EBP1 in L6 muscle cells (p-4EBP1): increased
